Laboratory results as given in patent US20260159486A1, “BENZO[H]QUINAZOLINE-4-AMINE DERIVATIVES FOR THE TREATMENT OF CANCER” (Redona Therapeutics, Inc., priority 2021, published 2026).
pIC50: −log10 of the molar value.

Assays:
MDA-MB-231 cells = assay: MDA-MB-231 proliferation assay; type: cell-based; conditions: YO-PRO-1 Iodide readout
Excerpt: (§1) MDA-MB-231 and CAL-51 Proliferation Assay
(§2) Cells (MDA-MB-231 (American Type Culture Collection (ATCC), #HTB-26) or CAL-51 (Deutsche Sammlung von Mikroorganismen und Zellkulturen (DSMZ), #ACC302) as applicable) were cultivated in DMEM High Glucose (4.5 g/L) with L-Glutamine (BioConcept, cat. no. 1-26F03-I) supplemented with 1% Na-pyruvate (Sigma, cat. no. S8636), 1% Penicillin-Streptomycin (BioConcept, cat. no. 4-01F00H), and 10% FBS (Sigma, cat. no. F9665) using standard techniques. Cells were seeded in black, clear-bottom 384 well plates for tissue culture (Greiner Bio-One, cat. no. 781091) at a density of 750 cells per well in 20 μL medium and the plates were incubated overnight at 37° C. with 5% CO2 prior to treatment. Experimental compounds were serially diluted in DMSO to 200× the desired final concentrations. The solutions were then diluted 1:40 with culture medium and 5 μL aliquots were mixed into the wells containing the cells. The final concentration of DMSO was 0.5%. The plates were incubated for 72 hours and cell numbers were then measured using YO-PRO™-1 Iodide (ThermoFisher Scientific, cat. no. Y3603) essentially as recommended by the manufacturer. Briefly, a 12.5 μM solution of YO-PRO™_1 Iodide in 5× YO—PRO buffer (100 mM Na-citrate, 130 mM NaCl, pH 4) was combined with an equal volume of lysis buffer (0.6% NP-40, 30 mM EDTA, 30 mM EGTA, 0.33× YO—PRO buffer) and 12.5 μL of the mixture were dispensed into each well. The plates were incubated at room temperature in the dark for 30 minutes. Fluorescence intensity signals were then measured on a Synergy 4 reader (BioTek) using 485/20 nm and 530/25 nm filters for the excitation and emission, respectively. Relative proliferation values were calculated by normalizing the raw data using DMSO-treated cells (100% proliferation) and the signals obtained from cells that were evaluated at the time of compound addition (0% proliferation). The concentration-response data were fitted to a sigmoidal 4-parameter logistic model with the maximum constrained to 100%. GI50 values were calculated from the curves as the compound concentrations reducing proliferation to 50%.

recombinant human CLK3 = target: T1, recombinant human CLK3 (Homo sapiens, UniProt P49761); assay: CLK3 kinase assay (LANCE Ultra); type: biochemical; conditions: CLK3 0.5 nM, ATP 300 μM, 3 hours at 30° C.
T1 construct: purchased Thermo Fisher Scientific PV3826
T1 sequence (P49761 whole entry): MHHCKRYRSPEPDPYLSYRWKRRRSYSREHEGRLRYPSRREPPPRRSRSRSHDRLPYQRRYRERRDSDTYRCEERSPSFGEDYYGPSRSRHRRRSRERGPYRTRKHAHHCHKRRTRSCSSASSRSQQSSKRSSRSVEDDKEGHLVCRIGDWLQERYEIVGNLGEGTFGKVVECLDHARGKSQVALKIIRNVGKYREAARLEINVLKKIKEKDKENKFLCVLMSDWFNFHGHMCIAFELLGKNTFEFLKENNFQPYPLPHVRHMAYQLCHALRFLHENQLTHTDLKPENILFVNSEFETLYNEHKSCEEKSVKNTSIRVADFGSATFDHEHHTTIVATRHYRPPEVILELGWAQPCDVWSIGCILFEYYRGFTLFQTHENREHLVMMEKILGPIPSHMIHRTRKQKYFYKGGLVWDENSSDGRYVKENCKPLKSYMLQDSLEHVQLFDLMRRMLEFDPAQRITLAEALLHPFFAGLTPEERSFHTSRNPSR
Experimental: CLK3 kinase activity was measured using the LANCE® Ultra technology (PerkinElmer) essentially as recommended by the supplier. Briefly, 2.5 μL of test sample at 4× the desired final concentration in 4% DMSO were dispensed into white, low volume, round bottom, 384 well plates (Corning, cat. no. 4512). 5 μL of a mixture containing recombinant human CLK3 (Thermo Fisher Scientific, cat. no. PV3826) and the labeled peptide substrate ULight™-CREBtide (PerkinElmer, cat. no. TRF0107) prepared in 1.33× kinase buffer (Thermo Fisher Scientific, cat. no. PV3189) were then added. Finally, the reactions were started by adding 2.5 μL of a 4× solution of ATP in kinase buffer. The plates were sealed with adhesive foils and incubated for 3 hours at 30° C. in the dark. The final concentrations of CLK3, ULight™-CREBtide, and ATP were 0.5 nM, 50 nM, and 300 μM, respectively. 5 μL of 40 mM EDTA were then added to terminate the reactions. The Eu-anti-phospho-CREB antibody (PerkinElmer, cat. no. TRF0200) diluted in LANCE® detection buffer (PerkinElmer, cat. no. CR97) was then added to a final concentration of 2 nM and the reactions were incubated for 1 hour at room temperature in the dark. The signals were measured using a Synergy 4 reader (BioTek) with a 320/80 nm filter for the excitation and 620/10 nm and 665/8 nm filters for the donor and acceptor emission, respectively. Relative inhibition values were calculated by normalizing the raw data using solvent control wells (0% inhibition) and wells that received no ATP (100% inhibition). IC50 values were calculated by fitting the concentration-response data to a sigmoidal 4-parameter logistic model. IC50 values for CLK3 are determined from duplicate measurements at ten different concentrations (serial 1:3 dilutions).

CAL-51 cells = assay: CAL-51 proliferation assay; type: cell-based; conditions: YO-PRO-1 Iodide readout
Excerpt: as §1, §2

Row | SMILES | GI50 (MDA-MB-231 cells; Homo sapiens, MDA-MB-231, 72 h) [nM] | pIC50 (recombinant human CLK3) | GI50 (CAL-51 cells; Homo sapiens, CAL-51, 72 h) [nM] | GI50 (MDA-MB-231 cells; 72 hours) [nM] | GI50 (CAL-51 cells; 72 hours) [nM]
1 | CN(CCO)c1c(O[C@H]2CC[C@@H](N)CC2)ccc2c1CC1(CCCC1)c1c(N)ncnc1-2 [Example 83, 2-[[4-amino-8-(cis-4-aminocyclohexoxy)spiro[6H-benzo[h]quinazoline-5,1′-cyclopentane]-7-yl]-methyl-amino]ethanol] | < 100 | > 7.52 | < 100 | – | –
2 | CN(CC1CCOCC1)c1c(O[C@H]2CC[C@@H](N)CC2)ccc2c1CC(C)(C)c1c(N)ncnc1-2 [Example 29, 8-(cis-4-aminocyclohexoxy)-N7,5,5-trimethyl-N7-(tetrahydropyran-4-ylmethyl)-6H-benzo[h]quinazoline-4,7-diamine] | 100 to 2000 | 6.00 to 7.00 | 100 to 2000 | – | –
3 | CN(CCC#N)c1c(Br)ccc2c1CC(C)(C)c1c(N)ncnc1-2 [Example 115, 3-[(4-amino-8-bromo-5,5-dimethyl-6H-benzo[h]quinazolin-7-yl)-methyl-amino]propanenitrile] | 100 to 2000 | > 7.52 | < 100 | – | –
4 | CN(CC#N)C(=O)c1c(O[C@H]2CC[C@H](N)CC2)ccc2c1CC(C)(C)c1c(N)ncnc1-2 [Example 94, 4-amino-8-(trans-4-aminocyclohexoxy)-N-(cyanomethyl)-N,5,5-trimethyl-6H-benzo[h]quinazoline-7-carboxamide] | > 2000 | 6.00 to 7.00 | 100 to 2000 | – | –
5 | CC1(C)Cc2c(ccc(O[C@H]3CC[C@H](N)CC3)c2S(=O)(=O)NCC#N)-c2ncnc(N)c21 [Example 116, 4-amino-8-(trans-4-aminocyclohexoxy)-N-(cyanomethyl)-5,5-dimethyl-6H-benzo[h]quinazoline-7-sulfonamide] | 100 to 2000 | 7.00 to 7.52 | 100 to 2000 | – | –
6 | COCCS(=O)(=O)N(C)c1c(O[C@H]2CC[C@H](N)CC2)ccc2c1CC(C)(C)c1c(N)ncnc1-2 [Example 64, N-[4-amino-8-(trans-4-aminocyclohexoxy)-5,5-dimethyl-6H-benzo[h]quinazolin-7-yl]-2-methoxy-N-methyl-ethanesulfonamide] | < 100 | > 7.52 | < 100 | – | –
7 | COc1ccc2c(c1N(CCC#N)Cc1nnc(C(C)F)o1)CC(C)(C)c1c(N)ncnc1-2 (stereo not drawn) [Example 124, 3-[(4-amino-8-methoxy-5,5-dimethyl-6H-benzo[h]quinazolin-7-yl)-[[5-(1-fluoroethyl)-1,3,4-oxadiazol-2-yl]methyl]amino]propanenitrile] | 100 to 2000 | 6.00 to 7.00 | 100 to 2000 | – | –
8 | CC1(C)Cc2c(ccc(O[C@H]3CC[C@H](N)CC3)c2N2CCC(C#N)C2)-c2ncnc(N)c21 (single isomer, unassigned) [Example 50, 1-[4-amino-8-(trans-4-aminocyclohexoxy)-5,5-dimethyl-6H-benzo[h]quinazolin-7-yl]pyrrolidine-3-carbonitrile] | – | > 7.52 | – | < 100 | < 100
9 | CN(C(=O)CO)c1c(O[C@H]2CC[C@H](N)CC2)ccc2c1CC(C)(C)c1c(N)ncnc1-2 [Example 41, N-[4-amino-8-(trans-4-aminocyclohexoxy)-5,5-dimethyl-6H-benzo[h]quinazolin-7-yl]-2-hydroxy-N-methyl-acetamide] | > 2000 | 6.00 to 7.00 | > 2000 | – | –
10 | CN(CCN)c1c(O[C@H]2CC[C@H](N)CC2)ccc2c1CC(C)(C)c1c(N)ncnc1-2 [Example 80, 8-(trans-4-aminocyclohexoxy)-N7-(2-aminoethyl)-N7,5,5-trimethyl-6H-benzo[h]quinazoline-4,7-diamine] | 100 to 2000 | > 7.52 | 100 to 2000 | – | –
11 | CNc1c(O[C@H]2CC[C@H](N)CC2)ccc2c1CC(C)(C)c1c(N)ncnc1-2 [Example 68, 8-(trans-4-aminocyclohexoxy)-N7,5,5-trimethyl-6H-benzo[h]quinazoline-4,7-diamine] | 100 to 2000 | 7.00 to 7.52 | < 100 | – | –
12 | COc1ccn(-c2c(O[C@H]3CC[C@H](N)CC3)ccc3c2CC(C)(C)c2c(N)ncnc2-3)c1 [Example 57, 8-(trans-4-aminocyclohexoxy)-7-(3-methoxypyrrol-1-yl)-5,5-dimethyl-6H-benzo[h]quinazolin-4-amine] | 100 to 2000 | 7.00 to 7.52 | < 100 | – | –
13 | CN(CCC#N)c1c(OC2CCCNCC2)ccc2c1CC(C)(C)c1c(N)ncnc1-2 (stereo not drawn) [Example 78, 3-[[4-amino-8-(azepan-4-yloxy)-5,5-dimethyl-6H-benzo[h]quinazolin-7-yl]-methyl-amino]propanenitrile] | < 100 | > 7.52 | < 100 | – | –
14 | CN(Cc1cocn1)c1c(O[C@H]2CC[C@H](N)CC2)ccc2c1CC(C)(C)c1c(N)ncnc1-2 [Example 105, 8-(trans-4-aminocyclohexoxy)-N7,5,5-trimethyl-N7-(oxazol-4-ylmethyl)-6H-benzo[h]quinazoline-4,7-diamine] | 100 to 2000 | 6.00 to 7.00 | 100 to 2000 | – | –
15 | CN(c1c(O[C@H]2CC[C@H](N)CC2)ccc2c1CC(C)(C)c1c(N)ncnc1-2)S(=O)(=O)CCC(=O)O [Example 69, 3-[[4-amino-8-(trans-4-aminocyclohexoxy)-5,5-dimethyl-6H-benzo[h]quinazolin-7-yl]-methyl-sulfamoyl]propanoic acid] | > 2000 | > 7.52 | > 2000 | – | –
16 | CN(CCOC(F)(F)F)c1c(O[C@H]2CC[C@H](N)CC2)ccc2c1CC(C)(C)c1c(N)ncnc1-2 [Example 47, 8-(trans-4-aminocyclohexoxy)-N7,5,5-trimethyl-N7-[2-(trifluoromethoxy)ethyl]-6H-benzo[h]quinazoline-4,7-diamine] | 100 to 2000 | 7.00 to 7.52 | < 100 | – | –
17 | CN(CC1(C#N)CC1)c1c(O[C@H]2CC[C@H](N)CC2)ccc2c1CC(C)(C)c1c(N)ncnc1-2 [Example 48, 1-[[[4-amino-8-(trans-4-aminocyclohexoxy)-5,5-dimethyl-6H-benzo[h]quinazolin-7-yl]-methyl-amino]methyl]cyclopropanecarbonitrile] | < 100 | > 7.52 | < 100 | – | –
18 | CC1(C)Cc2c(ccc(O[C@H]3CC[C@H](N)CC3)c2SCCC#N)-c2ncnc(N)c21 [Example 108, 3-[[4-amino-8-(trans-4-aminocyclohexoxy)-5,5-dimethyl-6H-benzo[h]quinazolin-7-yl]sulfanyl]propanenitrile] | 100 to 2000 | > 7.52 | < 100 | – | –
19 | COc1ccc2c(c1N)CC(C)(C)c1c(N)ncnc1-2 [Example 2, 8-methoxy-5,5-dimethyl-6H-benzo[h]quinazoline-4,7-diamine] | 100 to 2000 | 7.00 to 7.52 | 100 to 2000 | – | –
20 | CN(CCO)c1c(O[C@H]2CC[C@H](N)CC2)ccc2c1CC1(CCCC1)c1c(N)ncnc1-2 [Example 59, 2-[[4-amino-8-(4-trans-aminocyclohexoxy)spiro[6H-benzo[h]quinazoline-5,1′-cyclopentane]-7-yl]-methyl-amino]ethanol] | 100 to 2000 | > 7.52 | < 100 | – | –
